Assay results: US20260209152A1, “Substituted Hydroxystilbene Compounds and Derivatives, Synthesis and Uses Thereof” (Kynan Duke IP, LLC, priority 2019, published 2026)
Like-named read-outs stand apart in the source and are kept apart here.

Experiments:
Assay type in all cases: cell-based, human
Kidney A-498 = assay: CellTiter Glo cell viability assay; conditions: read-out: IC50
Protocol: 1.7*10^3 cells/well were seeded in quadruplicates in 96-well plate after plating. […] Cell growth was assessed on day 1, 3 and 5 after drug treatments using the CellTiter Glo Luminescence Cell Viability Assay (Promega) according to manufacturer's protocol. Thermo Scientific Varioskan LUX Multimode Microplate instrument was used for plate reading. Data are expressed as mean luminescence (arbitrary units) ±S.D.
Cell Viability Assays were employed to determine the concentration of Compound 1 (KYN-001) and analogues where the response is reduced by half. […] GraphPad Prism 7 software was used to fit dose response curves. Relative Luminescence Units were plotted against the log values of the doses used and the nonlinear regression model was used for data analysis.
The protocol for cell proliferation was optimized for Compound 8 (KYN-119) to enable a more accurate assessment of its low IC50 value. […]

Pancreatic MIA PaCa-2 = assay: CellTiter Glo cell viability assay; conditions: read-out: IC50
Protocol: (§1) 1.7*10^3 cells/well were seeded in quadruplicates in 96-well plate after plating. Drugs were added at 5 μM and 2-fold dilutions over 18 concentrations (0.000038146-5 […] range) to generate a dose-response curve. Cell growth was assessed on day 1, 3 and 5 after drug treatments using the CellTiter Glo Luminescence Cell Viability Assay (Promega) according to manufacturer's protocol. Thermo Scientific Varioskan LUX Multimode Microplate instrument was used for plate reading. Data are expressed as mean luminescence (arbitrary units) ±S.D.
(§2) Cell Viability Assays were employed to determine the concentration of Compound 1 (KYN-001) and analogues where the response is reduced by half. For each treatment of cancer cells, 1, 2, 5, 10 and 20 μM solutions of compounds were applied. GraphPad Prism 7 software was used to fit dose response curves. Relative Luminescence Units were plotted against the log values of the doses used and the nonlinear regression model was used for data analysis.
(§3) The protocol for cell proliferation was optimized for Compound 8 (KYN-119) to enable a more accurate assessment of its low IC50 value. In this protocol, 18 dosages (2 fold dilutions ranging from 0.000038146 to 5 μM) were applied to cells seeded in 96-well plates, and Luminescence was measured after 1, 3 and 5 days upon treatments.
Day 3 upon treatment of MIA PaCa_2 pancreatic cancer cells, 24 h after plating (11 dilutions), as assessed by CellTiter Glow Assay.

[1] = system: Cancer cells including pancreatic, bladder, kidney, colon, breast, lung, liver and osteosarcomas; assay: CellTiter Glo cell viability assay, panel of cancer cell lines; conditions: SAR discussion based on IC50 values in Tables 1 to 5; compared with 1 [KYN-001]
Protocol: Compounds 1 to 15 were evaluated and their effect on cancer growth examined in cell viability assays on multiple cancer types (Tables 1 to 5). Cancer cells including pancreatic, bladder, kidney, colon, breast, lung, liver and osteosarcomas obtained from ATCC (American Type Culture Collection) were authenticated before use by Short Tandem Repeat genomic analysis (Reid Y, Storts D, Riss T and Minor L. Authentication of Human Cell Lines by STR DNA Profiling Analysis. 2013 May 1. In: Markossian S, Sittampalam G S, Grossman A, et al., editors. Assay Guidance Manual. Bethesda (MD): Eli Lilly & Company and the National Center for Advancing Translational Sciences; 2004.). Experimental protocol for each cancer cell line was verified and optimized according to literature reports before use (Tables 1 to 3).
as §1, §2, §3

Bladder RT-112 = assay: CellTiter Glo cell viability assay; conditions: Homo sapiens, RT-112, 72 h, Table 4: 3 Days of treatment; 18 2-fold dilutions 5-0.00003 μM; Average (1, 8) or single Exp A-D; read-out: IC50
Protocol: as §1, §2, §3

[2] = Homo sapiens, A498, 72 h, Table 4: 3 Days of treatment, 18 2-fold dilutions 5-0.00003 μM, Average (1, 8) or single Exp A-D
[3] = Homo sapiens, A498, Table 5A: 11 dilutions 3-0.00001 μM, single experiments Exp E-K
[4] = Table 5A: 11 dilutions 3-0.00001 μM, single experiments Exp E-K
[5] = Homo sapiens, MIA PaCa-2, 72 h, Table 4: 3 Days of treatment, 18 2-fold dilutions 5-0.00003 μM, Average (1, 8) or single Exp A-D
[6] = Homo sapiens, MIA PaCa-2, Table 5A: 11 dilutions 3-0.00001 μM, single experiments Exp E-K
[7] = Table 5A: 11 dilutions 3-0.00001 μM, single experiments Exp E-K, listed as KYN-139
[8] = Table 5A: 11 dilutions 3-0.00001 μM, single experiments Exp E-K, listed as KYN-140

SMILES | IC50 (Kidney A-498; [3]) [nM] | IC50 (Pancreatic MIA PaCa-2; [6]) [nM] | Cancer cell viability inhibition, statement in words [1] | further results
C/C=C/Cc1c(/C=C/c2ccc(O)c(OC)c2)cc(O)cc1OC [Compound 2, 4-((E)-but-2-en-1-yl)-3-((E)-4-hydroxy-3-methoxystyryl)-5-methoxyphenol] | 100 to 1000 | 100 to 1000 | biological activity comparable with 1 | IC50 (Kidney A-498; [2]): 117 nM; IC50 (Kidney A-498; [4]): 132 nM; IC50 (Pancreatic MIA PaCa-2; [5]): 119 nM; IC50 (Pancreatic MIA PaCa-2; [4]): 135 nM
C/C=C\Cc1c(/C=C/c2ccc(O)c(OC)c2)cc(O)cc1OC [Compound 3, 4-((Z)-but-2-en-1-yl)-3-((E)-4-hydroxy-3-methoxystyryl)-5-methoxyphenol] | – | – | – | IC50 (Kidney A-498; [2]): 361 nM; IC50 (Kidney A-498; [7]): 545 nM; IC50 (Pancreatic MIA PaCa-2; [5]): 381 nM; IC50 (Pancreatic MIA PaCa-2; [7]): 520 nM
C=CC(C)c1c(/C=C/c2ccc(O)c(OC)c2)cc(O)cc1OC (stereo not shown) [Compound 4, (E)-4-(but-3-en-2-yl)-3-(4-hydroxy-3-methoxystyryl)-5-methoxyphenol] | – | – | – | IC50 (Kidney A-498; [2]): 667 nM; IC50 (Kidney A-498; [8]): 754 nM; IC50 (Pancreatic MIA PaCa-2; [5]): 755 nM; IC50 (Pancreatic MIA PaCa-2; [8]): 746 nM
C/C=C/Cc1c(/C=C/c2ccc(O)c(OC)c2)cc(O)cc1OCC [Compound 5, 4-((E)-But-2-en-1-yl)-3-ethoxy-5-((E)-4-hydroxy-3-methoxystyryl)phenol] | 1190 | – | – | IC50 (Pancreatic MIA PaCa-2; Table 5A: 11 dilutions 3-0.00001 μM, single experiments Exp E-K, listed as KYN-153): 27.5 nM
C=CCc1c(/C=C/c2ccc(O)c(OC)c2)cc(O)cc1OC [Compound 6, (E)-4-allyl-3-(4-hydroxy-3-methoxystyryl)-5-methoxyphenol] | 1090 | 1280 | – | IC50 (Bladder RT-112): 862 nM; IC50 (Kidney A-498; [2]): 1590 nM
COc1cc(/C=C/c2cc(O)cc(OC)c2Cc2ccccc2)ccc1O [Compound 7, (E)-4-benzyl-3-(4-hydroxy-3-methoxystyryl)-5-methoxyphenol] | 100 to 1000 | – | – | IC50 (Bladder RT-112): 170 nM; IC50 (Kidney A-498; [2]): 288 nM; IC50 (Kidney A-498; [4]): 199 nM
COc1cc(O)cc(/C=C/c2ccc(O)c(N(C)C)c2)c1CC=C(C)C [Compound 16, (E)-3-(3-(Dimethylamino)-4-hydroxystyryl)-5-methoxy-4-(3-methylbut-2-en-1-yl)phenol] | > 3000 | > 3000 | inactive or weakly active | –
COc1cc(/C=C/c2cc(O)cc(OC)c2CC=C(C)C)cc(O)c1O [Compound 18, (E)-5-(5-Hydroxy-3-methoxy-2-(3-methylbut-2-en-1-yl)styryl)-3-methoxybenzene-1,2-diol] | ~3000 | ~1000 | – | –
COc1cc(O)cc(/C=C/c2cc(O)cc(OC)c2CC=C(C)C)c1 [Compound 19, (E)-3-(3-Hydroxy-5-methoxystyryl)-5-methoxy-4-(3-methylbut-2-en-1-yl)phenol] | > 3000 | 921 | strongly weakened activity | –
COc1cc(/C=C/c2cc(O)cc(OC)c2CC=C(C)C)ccc1C(=O)O [Compound 21, (E)-4-(5-Hydroxy-3-methoxy-2-(3-methylbut-2-en-1-yl)styryl)-2-methoxybenzoic acid] | > 3000 | > 3000 | – | IC50 (Kidney A-498; [4]): ~3000 nM
COc1cc(/C=C/c2cc(O)cc(OC)c2CC=C(C)C)ccc1NS(C)(=O)=O [Compound 25, (E)-N-(4-(5-hydroxy-3-methoxy-2-(3-methylbut-2-en-1-yl)styryl)-2-methoxyphenyl)methanesulfonamide] | 15000 | – | – | IC50 (Pancreatic MIA PaCa-2; [5]): 7740 nM
COc1cc(/C=C\c2cc(O)cc(OC)c2CC=C(C)C)ccc1NS(C)(=O)=O [Compound 26, (Z)—N-(4-(5-hydroxy-3-methoxy-2-(3-methylbut-2-en-1-yl)styryl)-2-methoxyphenyl)methanesulfonamide] | – | – | Total loss of the anti-proliferative effect | –
CCOc1cc(O)cc(/C=C/c2ccc(NC(=O)CN)c(OC)c2)c1CC=C(C)C [Compound 32, (E)-2-Amino-N-(4-(3-ethoxy-5-hydroxy-2-(3-methylbut-2-en-1-yl)styryl)-2-methoxyphenyl)acetamide] | 1840 | – | – | –
CCOc1cc(O)cc(/C=C/c2ccc(NCC(=O)OC)c(OC)c2)c1CC=C(C)C [Compound 34, Methyl (E)-(4-(3-ethoxy-5-hydroxy-2-(3-methylbut-2-en-1-yl)styryl)-2-methoxyphenyl)glycinate] | – | 100 to 1000 | – | IC50 (Pancreatic MIA PaCa-2; [4]): 173 nM
CCOc1cc(O)cc(/C=C/c2ccc(NC(=O)CCC(=O)O)c(OC)c2)c1CC=C(C)C [Compound 37, (E)-4-((4-(3-Ethoxy-5-hydroxy-2-(3-methylbut-2-en-1-yl)styryl)-2-methoxyphenyl)amino)-4-oxobutanoic acid] | – | > 3000 | – | –
[H]/N=C(\N)Nc1ccc(C=Cc2cc(O)cc(OCC)c2CC=C(C)C)cc1OC [Compound 38, (E)-1-(4-(3-ethoxy-5-hydroxy-2-(3-methylbut-2-en-1-yl)styryl)-2-methoxyphenyl)guanidine] | 100 to 1000 | > 3000 | – | IC50 (Kidney A-498; [4]): ~100 nM
CCOc1cc(O)cc(/C=C/c2ccc(NC=O)c(O)c2)c1CC=C(C)C [Compound 40, (E)-N-(4-(3-Ethoxy-5-hydroxy-2-(3-methylbut-2-en-1-yl)styryl)-2-hydroxyphenyl)formamide] | 2930 | > 3000 | very strongly weakened activity | –
CCOc1cc(O)cc(/C=C/c2ccc(O)c(NC=O)c2)c1CC=C(C)C [Compound 41, (E)-N-(5-(3-Ethoxy-5-hydroxy-2-(3-methylbut-2-en-1-yl)styryl)-2-hydroxyphenyl)formamide] | – | > 3000 | inactive or weakly active | –
COc1cc(/C=C/c2cc([N+](=O)[O-])cc(OC)c2CC=C(C)C)ccc1O [Compound 42, (E)-2-Methoxy-4-(3-methoxy-2-(3-methylbut-2-en-1-yl)-5-nitrostyryl)phenol] | ~3000 | – | almost complete loss of anticancer activity | –
COc1cc(/C=C/c2cc(N)cc(OC)c2CC=C(C)C)ccc1O [Compound 43, (E)-4-(5-Amino-3-methoxy-2-(3-methylbut-2-en-1-yl)styryl)-2-methoxyphenol] | ~3000 | ~3000 | No significant enhancement of activity | –
COc1cc(/C=C/c2cc(NC=O)cc(OC)c2CC=C(C)C)ccc1O [Compound 44, (E)-N-(3-(4-Hydroxy-3-methoxystyryl)-5-methoxy-4-(3-methylbut-2-en-1-yl)phenyl)formamide] | 2040 | 1160 | No significant enhancement of activity | –
COc1cc(/C=C/c2cc(O)cc(C(F)(F)F)c2CC=C(C)C)ccc1O [Compound 46, (E)-3-(4-hydroxy-3-methoxystyryl)-4-(3-methylbut-2-en-1-yl)-5-(trifluoromethyl)phenol] | – | – | complete loss of biological activity | –
CCOc1cc(O)cc(/C=C/c2ccc3[nH]c(=O)oc3c2)c1CC=C(C)C [Compound 52, (E)-6-(3-Ethoxy-5-hydroxy-2-(3-methylbut-2-en-1-yl)styryl)benzo[d]oxazol-2(3H)-one] | – | – | no significant activity | –
